The source of these data is PubChem BioAssay AID588653 (The Scripps Research Institute Molecular Screening Center, 2011).

What is called inhibition is the drop in the measured response relative to a control, in per cent.

Molecules are shown by their SMILES.

The target in this assay is Epidermal growth factor receptor (Homo sapiens) (UniProt P00533). In words: change in phospho-EGFR protein amount, up or down, late-stage follow-up, counter-screen for KLF5 inhibitor project, HT29 cells, chemiluminescent western blot, powder samples (AID 588653). The following applies: p-EGFR western blot, 24 h, at 10 µM. (A counterscreen serves to expose hits that act by an unwanted route or on another target.)
Sequence of Epidermal growth factor receptor (Homo sapiens) (P00533 whole entry, looked up): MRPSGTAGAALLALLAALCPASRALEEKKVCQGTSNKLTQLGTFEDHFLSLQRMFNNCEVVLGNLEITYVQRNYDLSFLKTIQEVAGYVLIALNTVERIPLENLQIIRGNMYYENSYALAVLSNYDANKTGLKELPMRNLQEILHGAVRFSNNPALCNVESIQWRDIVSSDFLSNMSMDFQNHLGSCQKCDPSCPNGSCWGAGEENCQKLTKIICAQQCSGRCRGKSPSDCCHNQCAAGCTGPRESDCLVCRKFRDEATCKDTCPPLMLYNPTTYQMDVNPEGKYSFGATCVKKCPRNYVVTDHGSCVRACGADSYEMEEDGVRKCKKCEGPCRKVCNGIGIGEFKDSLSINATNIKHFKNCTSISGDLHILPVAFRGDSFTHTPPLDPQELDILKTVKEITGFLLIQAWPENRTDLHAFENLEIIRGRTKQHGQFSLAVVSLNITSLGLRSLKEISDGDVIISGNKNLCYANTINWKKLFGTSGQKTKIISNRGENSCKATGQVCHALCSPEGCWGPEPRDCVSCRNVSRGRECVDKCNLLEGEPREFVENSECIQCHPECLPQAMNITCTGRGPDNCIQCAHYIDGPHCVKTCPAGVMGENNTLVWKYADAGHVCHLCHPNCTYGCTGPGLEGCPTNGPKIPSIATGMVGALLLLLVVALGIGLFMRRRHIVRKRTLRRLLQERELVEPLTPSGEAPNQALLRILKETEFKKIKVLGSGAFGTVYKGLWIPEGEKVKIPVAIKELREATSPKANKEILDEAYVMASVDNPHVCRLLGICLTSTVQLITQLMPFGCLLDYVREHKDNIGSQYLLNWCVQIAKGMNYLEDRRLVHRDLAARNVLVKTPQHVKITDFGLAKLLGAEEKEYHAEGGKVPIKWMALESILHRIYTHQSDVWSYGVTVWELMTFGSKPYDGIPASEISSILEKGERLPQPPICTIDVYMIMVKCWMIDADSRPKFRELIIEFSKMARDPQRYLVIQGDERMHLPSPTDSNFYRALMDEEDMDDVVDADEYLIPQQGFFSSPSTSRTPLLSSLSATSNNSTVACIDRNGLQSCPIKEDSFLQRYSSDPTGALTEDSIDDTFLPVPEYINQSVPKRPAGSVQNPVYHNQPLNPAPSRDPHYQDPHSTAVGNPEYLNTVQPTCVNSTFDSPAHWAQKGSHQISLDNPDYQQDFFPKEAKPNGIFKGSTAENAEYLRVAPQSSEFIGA
Regarding `CN(C(=O)CNC(=O)/C=C/c1cccc(Cl)c1)C1CCS(=O)(=O)CC1`, the inhibition is -116%.
Under `CN(C(=O)CNC(=O)/C=C/c1cccc(Cl)c1)C1CCS(=O)(=O)C1` (stereo not drawn) stands -130%; under `CN(C(=O)COC(=O)/C=C/c1cccc([N+](=O)[O-])c1)C1CCS(=O)(=O)C1` (stereo not drawn), -47.5%.
